Test results from ChEMBL document CHEMBL5726195, “Pharmaceutically active pyrazine derivatives” (2017).
pIC50: −log10 of the molar value.

Molecular target: T1, Serine/threonine-protein kinase Chk1 (Homo sapiens, UniProt O14757)
T1 sequence (O14757 whole entry): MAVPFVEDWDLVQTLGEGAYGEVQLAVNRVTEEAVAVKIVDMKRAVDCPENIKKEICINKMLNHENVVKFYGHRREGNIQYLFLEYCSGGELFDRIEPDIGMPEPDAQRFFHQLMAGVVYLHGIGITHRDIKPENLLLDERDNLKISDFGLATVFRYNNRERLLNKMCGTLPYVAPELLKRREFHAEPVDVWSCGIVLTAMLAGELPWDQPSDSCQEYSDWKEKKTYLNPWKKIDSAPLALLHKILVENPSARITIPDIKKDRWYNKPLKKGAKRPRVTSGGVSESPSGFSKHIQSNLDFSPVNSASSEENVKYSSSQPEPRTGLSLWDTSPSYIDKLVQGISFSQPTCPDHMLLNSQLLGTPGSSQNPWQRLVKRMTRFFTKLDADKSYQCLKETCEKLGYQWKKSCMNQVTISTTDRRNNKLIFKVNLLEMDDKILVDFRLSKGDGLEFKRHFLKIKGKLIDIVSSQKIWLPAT
Test: Kinase Inhibition Asssay: Reaction Buffer:Base Reaction buffer: 20 mM Hepes (pH 7.5), 10 mM MgCl2, 1 mM EGTA, 0.02% Brij35, 0.02 mg/ml BSA, 0.1 mM Na3VO4, 2 mM DTT, 1% DMSORequired cofactors are added individually to each kinase reactionReaction Procedure:(i) Prepare indicated substrate in freshly prepared Base Reaction Buffer(ii) Deliver any required cofactors to the substrate solution above(iii) Deliver indicated kinase into the substrate solution and gently mix(iv) Deliver compounds in DMSO into the kinase reaction mixture(v) Deliver 33P-ATP (specific activity 0.01 μCi/μl final) into the reaction mixture to initiate the reaction.(vi) Incubate kinase reaction for 120 minutes at room temperature(vii) Reactions are spotted onto P81 ion exchange paper (Whatman #3698-915)(viii) Wash filters extensively in 0.1% phosphoric acid.(ix) Dry filters and measure counts in scintillation counterKinase Information:CHK-1 Genbank Accession # AF016582Recombinant full length construct, N-terminal GST tagged, purified from insect cells.No special measures were taken to activate this kinase.Final concentration in assay=0.5 nMSubstrate: CHKtidePeptide sequence: [[…]]Final concentration in assay=20 μM

| SMILES | pIC50 |
| --- | --- |
| COc1cc(CCNC[C@@H]2CCCNC2)c(Cl)cc1NC(=O)Nc1cnc(C#N)cn1 | 10.00 |
| COc1cc(CCNC[C@H]2CCCNC2)c(Cl)cc1NC(=O)Nc1cnc(C#N)cn1 | 10.22 |
